Converted amounts (≈) assume the structure as drawn. Read-outs that look alike come from different tables or passages of the source.
What was measured:
Type in all cases: cell-based
[1] = test system: Staphylococcus aureus ATCC 29213; test: MIC, broth microdilution, S. aureus ATCC 29213
[2] = test system: human hepatic cell line (HepG2 ATCC HB-8065); test: Human cell viability assay (CellTiter-Glo), HepG2; settings: HepG2, 24 h incubation, tested over 1-128 μg/mL, read-out: IC50 values against HepG2
In short: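 HepG2 seeded at 20,000 cells/well, then after 24 h given two-fold serial dilutions (1-128 μg/mL, 1% DMSO) in DMEM with 0.001% FBS and 0.3% albumin. After 24 h at 37 °C, ATP luminescence (CellTiter-Glo) read; IC50 is the concentration halving viability.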

S. aureus NRS1 MRSA = test: MIC, S. aureus NRS1; settings: Staphylococcus aureus; Table 2; read-out: MIC S. aureus NRS1 MRSA AMG & TET resistant
[3] = test system: Enterococcus faecium ATCC 19434; test: MIC, E. faecium ATCC 19434; settings: ATCC19434, Table 2
[4] = test system: S. epidermidis NRS101 MRSE; test: MIC, S. epidermidis NRS101; settings: Staphylococcus epidermidis; Table 2; read-out: MIC S. epidermidis NRS101 MRSE AMG, ERY resistant
[5] = test system: Escherichia coli ATCC 25922; test: MIC, broth microdilution, E. coli ATCC 25922; settings: ATCC25922, Table 1, wild type strain
[6] = test system: S. aureus (MRSA) ATCC 43300; test: MIC, S. aureus ATCC 43300; settings: Staphylococcus aureus; Table 2; read-out: MIC S. aureus (MRSA) ATCC 43300 Heterogeneous MRSA strain
[7] = test system: Haemophilus influenzae ATCC 49247; test: MIC, H. influenzae ATCC 49247; settings: ATCC49247, Table 4
[8] = test system: S. aureus NRS482 MRSA FQ resistant; test: MIC, S. aureus NRS482; settings: Staphylococcus aureus; Table 2
[9] = test system: S. aureus VRS1 MRSA VAN resistant; test: MIC, S. aureus VRS1; settings: Staphylococcus aureus, Table 2
[10] = test system: S. aureus SACPX1-SP25 MSSA - FQ resistant; test: microbe, parasite or virus in culture; settings: Staphylococcus aureus, ATCC 29213 / MSSA, read-out: MIC S. aureus SACPX1-SP25 MSSA - FQ resistant (isogenic mutant of ATCC 29213)
[11] = test system: S. aureus NRS127 MRSA LZD resistant; test: MIC, S. aureus NRS127; settings: Staphylococcus aureus; Table 2
[12] = test system: Neisseria gonorrhoeae ATCC 49226; test: MIC, N. gonorrhoeae ATCC 49226; settings: ATCC49226, Table 4, 24 h incubation
S. aureus NRS100 MRSA = test: MIC, S. aureus NRS100; settings: Staphylococcus aureus; Table 2
[13] = test system: Neisseria meningitidis ATCC 13090; test: MIC, N. meningitidis ATCC 13090; settings: ATCC13090, Table 4, 24 h incubation
[14] = test system: Legionella pneumophila ATCC 33152; test: microbe, parasite or virus in culture; settings: ATCC33152, 48 h, read-out: MIC Legionella pneumophila ATCC 33152
[15] = test system: Moraxella catarrhalis ATCC 25240; test: MIC, M. catarrhalis ATCC 25240; settings: ATCC25240, Table 4
[16] = ATCC29213, Table 1, wild type strain, read-out: MIC S. aureus ATCC 29213
[17] = ATCC 29213 / MSSA, Table 2, read-out: MIC S. aureus (MSSA) ATCC 29213 CLSI control strain

Row | Structure (SMILES) | MIC [1, 16] [µg/mL] | MIC [1, 17] [µg/mL] | IC50 [2] [µg/mL] | MIC (S. aureus NRS1 MRSA) [µg/mL] | MIC [3] [µg/mL] | MIC [4] [µg/mL] | MIC [5] [µg/mL] | MIC [6] [µg/mL] | MIC [7] [µg/mL] | MIC [8] [µg/mL] | MIC [9] [µg/mL] | MIC [10] [µg/mL] | MIC [11] [µg/mL] | MIC [12] [µg/mL] | MIC (S. aureus NRS100 MRSA) [µg/mL] | MIC [13] [µg/mL] | MIC [14] [µg/mL] | MIC [15] [µg/mL]
1 | Cc1c(-c2cnc3[nH]ncc3c2)ccc2c3ocnc3c(=O)n(C3CC3)c12 [Compound 20, 5-cyclopropyl-6-methyl-7-(1H-pyrazolo[3,4-b]pyridine-5-yl)oxazolo[4,5-c]quinolin-4-one] | < 1 | < 1 | > 100 | < 1 | 1 to 10 (≈ 2.8 to 28 µM) | < 1 | 1 to 10 (≈ 2.8 to 28 µM) | < 1 | < 1 | < 1 | < 1 | < 1 | < 1 | – | – | – | – | –
2 | Cc1nc2c(=O)n(C3CC3)c3c(C)c(-c4ccc(N)nc4)ccc3c2o1 [Compound 23, 7-(6-amino-3-pyridyl)-5-cyclopropyl-2,6-dimethyl-oxazolo[4,5-c]quinolin-4-one] | < 1 | < 1 | – | 1 to 10 (≈ 2.89 to 28.9 µM) | > 100 | 1 to 10 (≈ 2.89 to 28.9 µM) | 1 to 10 (≈ 2.89 to 28.9 µM) | < 1 | 1 to 10 (≈ 2.89 to 28.9 µM) | 1 to 10 (≈ 2.89 to 28.9 µM) | 10 to 100 (≈ 28.9 to 289 µM) | 1 to 10 (≈ 2.89 to 28.9 µM) | 1 to 10 (≈ 2.89 to 28.9 µM) | 1 to 10 (≈ 2.89 to 28.9 µM) | – | – | – | –
3 | Cc1nc2c(=O)n(C3CC3)c3c(C)c(-c4ccc5cn[nH]c5c4)ccc3c2o1 [Compound 27, 5-cyclopropyl-7-(l H-indazol-6-yl)-2,6-dimethyl-oxazolo[4,5-c]quinolin-4-one] | < 1 | < 1 | 10 to 100 (≈ 27 to 270 µM) | 1 to 10 (≈ 2.7 to 27 µM) | > 100 | < 1 | 1 to 10 (≈ 2.7 to 27 µM) | < 1 | 1 to 10 (≈ 2.7 to 27 µM) | < 1 | 10 to 100 (≈ 27 to 270 µM) | – | 10 to 100 (≈ 27 to 270 µM) | – | – | – | – | –
4 | Cc1nc2c(=O)n(C3CC3)c3cc(N4CCC(C(C)N)C4)c(F)cc3c2o1 (centres unmarked) [Compound 54, 7-[3-(1-aminoethyl)pyrrolidin-1-yl]-5-cyclopropyl-8-fluoro-2-methyl-oxazolo[4,5-c]quinolin-4-one] | 1 to 10 (≈ 2.7 to 27 µM) | 1 to 10 (≈ 2.7 to 27 µM) | 10 to 100 (≈ 27 to 270 µM) | – | 10 to 100 (≈ 27 to 270 µM) | – | 1 to 10 (≈ 2.7 to 27 µM) | – | 1 to 10 (≈ 2.7 to 27 µM) | – | – | – | – | – | 1 to 10 (≈ 2.7 to 27 µM) | – | – | –
5 | Cc1nc2c(=O)n(C3CC3)c3cc(N4CCC(CN)C4)c(F)cc3c2o1 (centres unmarked) [Compound 57, 7-[3-(aminomethyl)pyrrolidin-1-yl]-5-cyclopropyl-8-fluoro-2-methyl-oxazolo[4,5-c]quinolin-4-one] | < 1 | < 1 | 10 to 100 (≈ 28.1 to 281 µM) | 1 to 10 (≈ 2.81 to 28.1 µM) | 10 to 100 (≈ 28.1 to 281 µM) | – | 1 to 10 (≈ 2.81 to 28.1 µM) | – | 1 to 10 (≈ 2.81 to 28.1 µM) | 1 to 10 (≈ 2.81 to 28.1 µM) | – | 1 to 10 (≈ 2.81 to 28.1 µM) | – | – | – | 1 to 10 (≈ 2.81 to 28.1 µM) | – | –
6 | Cc1nc2c(=O)n3c4c(c(N5CCC(CN)C5)c(F)cc4c2o1)OC[C@@H]3C (stereo partly drawn) [Compound 88, (2S)-6-[3-(aminomethyl)pyrrolidin-1-yl]-7-fluoro-2,12-dimethyl-4,11-dioxa-1,13-diazatetracyclo[7.6.1.0^5,^16.0^10,^14]hexadeca-5(16),6,8,10(14),12-pentaen-15-one] | < 1 | < 1 | 10 to 100 (≈ 26.9 to 269 µM) | 1 to 10 (≈ 2.69 to 26.9 µM) | 10 to 100 (≈ 26.9 to 269 µM) | – | 1 to 10 (≈ 2.69 to 26.9 µM) | 1 to 10 (≈ 2.69 to 26.9 µM) | 1 to 10 (≈ 2.69 to 26.9 µM) | 1 to 10 (≈ 2.69 to 26.9 µM) | 1 to 10 (≈ 2.69 to 26.9 µM) | 1 to 10 (≈ 2.69 to 26.9 µM) | 1 to 10 (≈ 2.69 to 26.9 µM) | 1 to 10 (≈ 2.69 to 26.9 µM) | – | 1 to 10 (≈ 2.69 to 26.9 µM) | 1 to 10 (≈ 2.69 to 26.9 µM) | 1 to 10 (≈ 2.69 to 26.9 µM)

Source: patent US10385065B2, “Antibacterial compounds” (priority 2014, dated 2019)
